Test results reported in ChEMBL document CHEMBL1201862, “PubChem BioAssay data set” (2004).
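Growth conditions: 96-well plates. Treatment: test compound, 48 hours, 5 concentrations. Analysis: linear interpolation between bracketing concentrations; unreached endpoints set to highest concentration. GI50 is the concentration that inhibits growth by half.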 Calls of active or inactive are those of the source. Rule as the data show it: active = GI50 up to about 1.1 µM and inactive = higher.

Tests used:
Experiment in all cases: NCI tumour cell line growth inhibition, 48 h
MDA-MB-435 = system: MDA-MB-435
COLO 205 = system: COLO 205
HT-29 = system: HT-29
Hs-578T = system: Hs-578T
NCI-H226 = system: NCI-H226
MOLT-4 = system: MOLT-4
A549 = system: A549
SNB-19 = system: SNB-19
LOX IMVI = system: LOX IMVI
T47D = system: T47D
SR = system: SR
TK-10 = system: TK-10
CAKI-1 = system: CAKI-1
HL-60 = system: HL-60
OVCAR-5 = system: OVCAR-5
NCI-H460 = system: NCI-H460
MDA-MB-231 = system: MDA-MB-231
SF-539 = system: SF-539
A498 = system: A498
CCRF-CEM = system: CCRF-CEM
SNB-75 = system: SNB-75
PC-3 = system: PC-3
HCT-116 = system: HCT-116
SK-MEL-28 = system: SK-MEL-28
MDA-N = system: MDA-N
K562 = system: K562
SF-268 = system: SF-268
BT-549 = system: BT-549
HOP-62 = system: HOP-62
SW-620 = system: SW-620
SK-MEL-5 = system: SK-MEL-5
U-251 = system: U-251
UACC-257 = system: UACC-257
DU-145 = system: DU-145
786-0 = system: 786-0
SK-OV-3 = system: SK-OV-3
OVCAR-4 = system: OVCAR-4
KM12 = system: KM12
NCI-H522 = system: NCI-H522
ACHN = system: ACHN
RPMI-8226 = system: RPMI-8226
SN12C = system: SN12C
MCF7 = system: MCF7
OVCAR-3 = system: OVCAR-3
UACC-62 = system: UACC-62
NCI-H23 = system: NCI-H23
OVCAR-8 = system: OVCAR-8
IGROV-1 = system: IGROV-1
EKVX = system: EKVX
UO-31 = system: UO-31
M14 = system: M14
RXF 393 = system: RXF 393
SK-MEL-2 = system: SK-MEL-2
HOP-92 = system: HOP-92
HCT-15 = system: HCT-15
SF-295 = system: SF-295
HCC 2998 = system: HCC 2998
NCI/ADR-RES = system: NCI/ADR-RES
Malme-3M = system: Malme-3M

Compound: Cc1ncc2c(n1)CCC1=C2OS(=O)(=O)CC1N(C)C (stereo unspecified)
- GI50 (MDA-MB-435): > 100 µM (inactive)
- GI50 (COLO 205): > 100 µM (inactive)
- GI50 (HT-29): > 100 µM (inactive)
- GI50 (Hs-578T): > 100 µM (inactive)
- GI50 (NCI-H226): > 100 µM (inactive)
- GI50 (MOLT-4): > 100 µM (inactive)
- GI50 (A549): > 100 µM (inactive)
- GI50 (SNB-19): > 100 µM (inactive)
- GI50 (LOX IMVI): > 100 µM (inactive)
- GI50 (T47D): 63.1 µM (inactive)
- GI50 (SR): > 100 µM (inactive)
- GI50 (TK-10): > 100 µM (inactive)
- GI50 (CAKI-1): 69.5 µM (inactive)
- GI50 (HL-60): > 100 µM (inactive)
- GI50 (OVCAR-5): > 100 µM (inactive)
- GI50 (NCI-H460): > 100 µM (inactive)
- GI50 (MDA-MB-231): > 100 µM (inactive)
- GI50 (SF-539): > 100 µM (inactive)
- GI50 (A498): 58.2 µM (inactive)
- GI50 (CCRF-CEM): 80.5 µM (inactive)
- GI50 (SNB-75): > 100 µM (inactive)
- GI50 (PC-3): > 100 µM (inactive)
- GI50 (HCT-116): 98.2 µM (inactive)
- GI50 (SK-MEL-28): > 100 µM (inactive)
- GI50 (MDA-N): > 100 µM (inactive)
- GI50 (K562): > 100 µM (inactive)
- GI50 (SF-268): > 100 µM (inactive)
- GI50 (BT-549): > 100 µM (inactive)
- GI50 (HOP-62): 76.6 µM (inactive)
- GI50 (SW-620): > 100 µM (inactive)
- GI50 (SK-MEL-5): 70 µM (inactive)
- GI50 (U-251): > 100 µM (inactive)
- GI50 (UACC-257): > 100 µM (inactive)
- GI50 (DU-145): > 100 µM (inactive)
- GI50 (786-0): > 100 µM (inactive)
- GI50 (SK-OV-3): > 100 µM (inactive)
- GI50 (OVCAR-4): > 100 µM (inactive)
- GI50 (KM12): > 100 µM (inactive)
- GI50 (NCI-H522): 31.8 µM (inactive)
- GI50 (ACHN): > 100 µM (inactive)
- GI50 (RPMI-8226): > 100 µM (inactive)
- GI50 (SN12C): > 100 µM (inactive)
- GI50 (MCF7): > 100 µM (inactive)
- GI50 (OVCAR-3): > 100 µM (inactive)
- GI50 (UACC-62): 96.6 µM (inactive)
- GI50 (NCI-H23): > 100 µM (inactive)
- GI50 (OVCAR-8): > 100 µM (inactive)
- GI50 (IGROV-1): > 100 µM (inactive)
- GI50 (EKVX): > 100 µM (inactive)
- GI50 (UO-31): > 100 µM (inactive)
- GI50 (M14): 95.9 µM (inactive)

Compound: CCOC(=O)C(=[N+]=[N-])C(=O)C[N+]12CCN(CC1)CC2
- GI50 (MDA-MB-435): > 100 µM (inactive)
- GI50 (COLO 205): > 100 µM (inactive)
- GI50 (HT-29): > 100 µM (inactive)
- GI50 (RXF 393): > 100 µM (inactive)
- GI50 (Hs-578T): > 100 µM (inactive)
- GI50 (NCI-H226): > 100 µM (inactive)
- GI50 (MOLT-4): > 100 µM (inactive)
- GI50 (A549): > 100 µM (inactive)
- GI50 (SK-MEL-2): > 100 µM (inactive)
- GI50 (HOP-92): > 100 µM (inactive)
- GI50 (SNB-19): > 100 µM (inactive)
- GI50 (LOX IMVI): > 100 µM (inactive)
- GI50 (HCT-15): > 100 µM
- GI50 (T47D): > 100 µM (inactive)
- GI50 (SR): > 100 µM (inactive)
- GI50 (TK-10): > 100 µM (inactive)
- GI50 (CAKI-1): > 100 µM (inactive)
- GI50 (OVCAR-5): > 100 µM (inactive)
- GI50 (NCI-H460): > 100 µM (inactive)
- GI50 (MDA-MB-231): > 100 µM (inactive)
- GI50 (A498): > 100 µM (inactive)
- GI50 (CCRF-CEM): > 100 µM (inactive)
- GI50 (SNB-75): > 100 µM (inactive)
- GI50 (SF-295): > 100 µM (inactive)
- GI50 (PC-3): > 100 µM (inactive)
- GI50 (HCT-116): > 100 µM (inactive)
- GI50 (SK-MEL-28): > 100 µM (inactive)
- GI50 (MDA-N): > 100 µM (inactive)
- GI50 (K562): > 100 µM (inactive)
- GI50 (SF-268): > 100 µM (inactive)
- GI50 (BT-549): > 100 µM (inactive)
- GI50 (HOP-62): > 100 µM (inactive)
- GI50 (SW-620): > 100 µM (inactive)
- GI50 (SK-MEL-5): > 100 µM (inactive)
- GI50 (U-251): > 100 µM (inactive)
- GI50 (UACC-257): > 100 µM (inactive)
- GI50 (DU-145): > 100 µM (inactive)
- GI50 (786-0): > 100 µM (inactive)
- GI50 (SK-OV-3): > 100 µM (inactive)
- GI50 (OVCAR-4): > 100 µM (inactive)
- GI50 (HCC 2998): > 100 µM (inactive)
- GI50 (KM12): > 100 µM (inactive)
- GI50 (NCI-H522): > 100 µM (inactive)
- GI50 (NCI/ADR-RES): > 100 µM (inactive)
- GI50 (ACHN): > 100 µM (inactive)
- GI50 (RPMI-8226): > 100 µM (inactive)
- GI50 (SN12C): > 100 µM (inactive)
- GI50 (OVCAR-3): > 100 µM (inactive)
- GI50 (UACC-62): > 100 µM (inactive)
- GI50 (NCI-H23): > 100 µM (inactive)
- GI50 (OVCAR-8): > 100 µM (inactive)
- GI50 (IGROV-1): > 100 µM (inactive)
- GI50 (Malme-3M): > 100 µM (inactive)
- GI50 (UO-31): > 100 µM (inactive)
- GI50 (M14): > 100 µM (inactive)
